Laboratory results: patent publication US12145975B2, “Fusion proteins for the treatment of cardiometabolic diseases” (Shattuck Labs, Inc., priority 2022, dated 2024)
Entries after “also recorded” stand apart in the source; their conditions may differ. Where no end group is shown, it is not given here.

Legend:
GIPR = biological target: T1, GIPR (Rattus norvegicus, UniProt P43219); test: GIPR agonism/antagonism in rat INS-1 cells having pGloSensor-22F biosensor; type: cell-based; design: dose or concentration left out as unconfirmed
T1 construct: endogenous in cells; host or cells: rat INS-1 insulinoma cells (derivatives with a cAMP-luciferase reporter or pGloSensor-22F)
T1 sequence (P43219 19-455): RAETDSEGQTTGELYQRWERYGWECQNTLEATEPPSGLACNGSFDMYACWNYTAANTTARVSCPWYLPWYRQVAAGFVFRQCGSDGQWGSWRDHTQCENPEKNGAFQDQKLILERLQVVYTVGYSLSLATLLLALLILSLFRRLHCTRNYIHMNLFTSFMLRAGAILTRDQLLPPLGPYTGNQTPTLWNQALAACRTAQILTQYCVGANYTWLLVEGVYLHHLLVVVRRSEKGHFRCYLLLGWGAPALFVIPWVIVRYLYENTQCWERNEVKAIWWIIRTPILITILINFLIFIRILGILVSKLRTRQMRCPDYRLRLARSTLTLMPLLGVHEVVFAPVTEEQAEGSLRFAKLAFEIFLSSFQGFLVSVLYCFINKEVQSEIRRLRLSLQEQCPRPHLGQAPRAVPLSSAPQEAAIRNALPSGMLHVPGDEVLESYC
Method: A series of GIP antagonist peptides were evaluated at blocking human GIP (hGIP) agonism and the induction of cAMP. Briefly, rat INS-1 cells having pGloSensor-22F (Promega) were constructed and used to evaluate GIPR agonism and antagonism. […] The conformational change leads to the activation of the luciferase enzyme, thereby allowing detection of activation of GIPR, which produces cAMP upon activation.
To assay for GIPR agonism, rat INS-1 cells having pGloSensor-22F biosensor were treated with increasing concentrations of GIP(Ag). Immediately after the addition, the luminescence of the cells was measured, normalized using the basal luminescence and plotted.
GIPR antagonism was measured as the inhibition of GIP(Ag)-induced activation of the cAMP-luciferase reporter gene in rat INS-1 cells having pGloSensor-22F biosensor. The following GIP derivatives accessed in this assay for GIPR antagonism: GIP(Ant 3-30), GIP(Ant 3-30NH2), (GIP(Ant 3-30) having amidated carboxy terminus), GIP(AntPro3), GIP(AntPro3NH2), GIP(Ant3-30, Pro3) and GIP(Ant3-30, Pro3NH2). Briefly, rat INS-1 cells having pGloSensor-22F were treated with increasing doses of the above various GIP derivatives, mixed with […] GIP(Ag). Immediately after the addition, the luminescence of the cells was measured, normalized using the basal luminescence and plotted.
The GIP(Ag) was re-evaluated across a broader concentration range. Rat INS-1 cells having pGloSensor-22F biosensor were treated with increasing concentrations of GIP(Ag). Immediately after the addition, the luminescence of the cells was measured, normalized using the basal luminescence and plotted.
The GIP(AntPro3) and GIP(AntPro3NH2) were re-evaluated across a broader concentration range. Briefly, rat INS-1 cells having pGloSensor-22F were treated with increasing doses of GIP(AntPro3) and GIP(AntPro3NH2), mixed with […] GIP(Ag). Immediately after the addition, the luminescence of the cells was measured, normalized using the basal luminescence and plotted.

HFD-fed mice [1] = test: glucose tolerance test (GTT) model in HFD-fed mice; type: in vivo; conditions: for serum insulin following glucose administration (time course): FIG. 7C; for serum glucose following glucose administration (time course): i.v. treatment, 18 hours fast, 2 g/kg glucose i.v., tirzepatide 1.25 mpk, fusion protein 5 mpk, mRNA 1 mpk, FIG. 7A
Method: Cages were changed once, then changed once a week.
The mice administered the above treatment by i.v. injections. The mice were then fasted for 18 hours and administered a dose of 2 g/kg glucose by i.v. injections. Blood samples were drawn by tail clip bleeding at 15, 30 and 60 minutes post dosing and cardiac bleeding was used at 2 hours after glucose injection as end-point.

HFD-fed mice [2] = test: longer-term obesity model in HFD-fed mice; conditions: for blood glucose levels compared to the untreated mice: Days 0, 1, 10 and 15, FIG. 8E; for plasma insulin levels on Day 15: FIG. 8C right panel; for average daily food intake compared to the untreated mice: FIG. 8D; for hepatocellular ballooning and steatosis (liver H&E histology): FIG. 8J; for plasma insulin levels on Day 1: between 15 and 120 minutes after treatment, FIG. 8C left panel; for liver weight, PBS control versus treated mice / subcutaneous white adipose tissue (sWAT) weight: day 19 terminal necropsy; for liver weight, PBS control versus treated mice: FIG. 8G; for subcutaneous white adipose tissue (sWAT) weight: FIG. 8H; for tolerability / clinical observations: obesity model, repeated tail vein dosing; for change in body weight: tail vein on Day 0, 4, 7, 10, 14, 18, dulaglutide 1 mpk, tirzepatide 0.5 mpk, fusion protein 5 mpk, mRNA 1 mpk, FIG. 8A
Method: Mice (Male C57BL/6) were of approximately 13 weeks of age were housed 4 mice per cage. Following 2 weeks of acclimation, mice were introduced to 60% kcal HFD (Research Diets D12492). Cages were changed once, then changed once a week. Weekly body weights and non-fasted blood glucose were collected.
Mice were injected by tail vein with vehicle or the drugs on Day 0, Day 4, Day 7, Day 10, Day 14, and Day 18. Body weights were measured every 2 days. Change in body weight was calculated and plotted.
Cumulative food intake was measured between day 0 and 3, between day 4 and 7, between day 7 and day 11, and between day 11 and day 14, and represented as average daily food intake. For food consumption, remaining food was weighed on days 3, 8, and 15, and subtracted from the starting weight. This value was then normalized to the number of mice in the cage, and the number of days the mice had access to the food prior to weighing.
Blood glucose levels were measured on Days 0, 1, 10 and 15 and plotted.
On day 19 during terminal necropsy, liver and subcutaneous white adipose tissue were recovered weighed from treated animals.
To further analyze the changes in liver, histopathological analysis was conducted. Briefly, the liver tissue was stained with hematoxylin and eosin (H&E) and evaluated using standard techniques.

GIP receptor (GIPR) = biological target: T2, GIP receptor (GIPR) (Rattus norvegicus, UniProt P43219); test: cAMP-Glo assay in rat insulinoma INS-1 cells harboring a cAMP-luciferase reporter gene; type: cell-based; conditions: 1 hour glucose, then 2 hour incubation with increasing amounts; FIG. 4A
T2 construct: endogenous in cells; host or cells: rat INS-1 insulinoma cells (derivatives with a cAMP-luciferase reporter or pGloSensor-22F)
T2 sequence (P43219 19-455): T1 sequence (P43219 19-455)
Text: Rat insulinoma INS-1 cells harboring a cAMP-luciferase reporter gene were used to study the activation of GIPR. Without wishing to be bound by theory, the activation of GIPR leads to temporary depletion of ATP because of consumption of ATP in cyclization reaction to produce cAMP as well as by phosphorylation by protein kinase A of its substrate. Without wishing to be bound by theory, the temporary depletion of ATP leads to an inhibition of luciferase activity, which needs ATP as a substrate.

[3] = broader concentration range, mixed with GIP(Ag), FIG. 5B
[4] = increasing doses mixed with GIP(Ag), FIG. 5A

Substance | inhibition of GIP(Ag)-induced activation of the cAMP-luciferase reporter gene (GIPR antagonism) (GIPR; [3]) | inhibition of GIP(Ag)-induced activation of the cAMP-luciferase reporter gene (GIPR antagonism) (GIPR; [4]) | serum insulin following glucose administration (time course) (HFD-fed mice [1]; GTT) | glucose tolerance (HFD-fed mice [1]; GTT, summary of Example 11) | serum glucose following glucose administration (time course) (HFD-fed mice [1]) | blood glucose levels compared to the untreated mice (HFD-fed mice [2]) | weights of individual mice (HFD-fed mice [2]; FIG. 8B) | plasma insulin levels on Day 15 (HFD-fed mice [2]) | average daily food intake compared to the untreated mice (HFD-fed mice [2]) | collagen staining (fibrosis), liver sections stained with picrosirius red (HFD-fed mice [2]; FIG. 8I) | hepatocellular ballooning and steatosis (liver H&E histology) (HFD-fed mice [2]) | plasma insulin levels on Day 1 (HFD-fed mice [2]) | liver weight, PBS control versus treated mice (HFD-fed mice [2]) | subcutaneous white adipose tissue (sWAT) weight (HFD-fed mice [2]) | tolerability / clinical observations (HFD-fed mice [2]) | collagen staining (fibrosis) in comparison with tirzepatide or dulaglutide (HFD-fed mice [2]; picrosirius red, FIG. 8I) | change in body weight (HFD-fed mice [2]) | inhibition of luciferase (activation of GIPR) (GIP receptor (GIPR)) | hepatocellular ballooning and steatosis (liver H&E histology) compared to untreated animals (HFD-fed mice [2]; higher magnifications, FIG. 8K)
GIP(AntPro3): GIP Antagonist (amino acids 1-42, having a E3P substitution); SEQ ID NO: 97 (YAPGTFISDYSIAMDKIHQQDFVNWLLAQKGKKNDWKHNITQ) | dose-dependent inhibition of GIP(Ag)-induced activation of the cAMP-luciferase reporter gene | more potent inhibition of GIP agonist signaling than the others tested; also recorded: maximal level of a dose-dependent inhibition of GIP(Ag)-induced activation | – | – | – | – | – | – | – | – | – | – | – | – | – | – | – | – | –
GIP(AntPro3NH2): GIP antagonist peptide, GIP(AntPro3) presumably with amidated carboxy terminus (YAPGTFISDYSIAMDKIHQQDFVNWLLAQKGKKNDWKHNITQ; also: presumably amidated C-terminus) | dose-dependent inhibition of GIP(Ag)-induced activation of the cAMP-luciferase reporter gene | more potent inhibition of GIP agonist signaling than the others tested; also recorded: maximal level of a dose-dependent inhibition of GIP(Ag)-induced activation | – | – | – | – | – | – | – | – | – | – | – | – | – | – | – | – | –
GLP-1-Fc-GIP(AntPro3): chimeric protein: GLP-1 fused to GIP antagonist (amino acids 1-42, E3P) via IgG1 Fc domain; SEQ ID NO: 95 | – | – | rapid induction of insulin | improved glucose tolerance | much smaller increase in serum glucose | decrease in blood glucose | induced weight loss | significant decrease in the levels of insulin | decrease in food intake | decrease in collagen staining | decrease in hepatocellular ballooning and steatosis | rapid decrease in insulin levels | the livers of control mice that received only PBS were much heavier compared to the mice receiving treatments | decreased | well tolerated and no overt toxicities were noted | greater decrease in collagen staining compared to the livers from mice treated with tirzepatide or dulaglutide | progressive weight loss | – | –
dulaglutide [reference compound] | – | – | – | – | – | decrease in blood glucose | – | significant decrease in the levels of insulin | decrease in food intake | decrease in collagen staining | decrease in hepatocellular ballooning and steatosis | rapid decrease in insulin levels | the livers of control mice that received only PBS were much heavier compared to the mice receiving treatments | decreased | well tolerated and no overt toxicities were noted | – | progressive weight loss | – | –
tirzepatide [reference compound] | – | – | rapid induction of insulin | – | much smaller increase in serum glucose | decrease in blood glucose | – | significant decrease in the levels of insulin | decrease in food intake | decrease in collagen staining | decrease in hepatocellular ballooning and steatosis | – | the livers of control mice that received only PBS were much heavier compared to the mice receiving treatments | decreased | – | – | progressive weight loss | dose-dependent and saturable inhibition of luciferase with similar potency | significant decrease in hepatocellular ballooning and steatosis
